# Assay results taken from patent US20080220445A1, “Method of Screening Transmembrane Enzyme Inhibitory Substance” (TAKEDA PHARMACEUTICAL COMPANY LIMITED, priority 2004, published 2008).
# Experiments:
# BACE1-471 = biological target: T1, BACE1-471 (Homo sapiens, UniProt P56817); experiment: Inhibitory action on BACE1-471, fluorescence-quenched peptide substrate; format: biochemical; details: pH 5.5; final concentration: 10 μM; 37° C. for 50 hr; pH5.5; read-out: inhibition rates on BACE1-471
# T1 construct: made in house; host or cells: FreeStyle 293-F cells (HEK293)
# T1 sequence (P56817 with tags, fused parts or gaps): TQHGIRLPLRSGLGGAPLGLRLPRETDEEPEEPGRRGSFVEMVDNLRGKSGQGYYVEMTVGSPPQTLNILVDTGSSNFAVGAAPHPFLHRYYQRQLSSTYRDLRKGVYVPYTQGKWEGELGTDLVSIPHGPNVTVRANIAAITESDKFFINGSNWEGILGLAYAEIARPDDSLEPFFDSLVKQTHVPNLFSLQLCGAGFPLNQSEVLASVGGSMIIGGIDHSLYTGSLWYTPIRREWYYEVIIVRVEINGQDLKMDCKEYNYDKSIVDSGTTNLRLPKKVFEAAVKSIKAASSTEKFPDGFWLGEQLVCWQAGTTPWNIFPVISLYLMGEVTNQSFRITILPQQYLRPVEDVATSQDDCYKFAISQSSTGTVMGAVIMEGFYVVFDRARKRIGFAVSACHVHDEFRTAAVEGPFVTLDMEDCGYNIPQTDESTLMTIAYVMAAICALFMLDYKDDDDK
# Description: (§1) To 96 black well plate, 25 μl of 0.05M acetate buffer (pH5.5), 10 μl of 250 μM substrate (Nma-Ser-Glu-Val-Lys-Met-Asp-Ala-Glu-Lys(Dnp)-Arg-Arg-NH2; SEQ ID NO: 11), 10 μl of BACE1-471 (0.05 mg/ml) or BACE1-465 (0.04 mg/ml) obtained from the above-mentioned Reference Example 7, and 5 μl of 0.1 mM Compound A in 10% DMSO solution, and as a control, 5 μl of 10% DMSO were added respectively, and allowed to be reacted at 37° C. for 50 hr for BACE1-471 and for 22 hr for BACE1-465. After completion of the reaction, the fluorescence intensity (excitation wavelength at 325 nm, measurement wavelength at 460 nm) was measured with Fluoroscan ASCENT.
# [1] = biological target: T2, BACE1-454 (extracellular domain of β-secretase) (Homo sapiens, UniProt P56817); experiment: Inhibitory action on BACE protein, fluorescence-quenched peptide substrate; format: biochemical; details: final concentration: 10 μM; 37° C. for 63 hr; pH 5.5
# T2 construct: made in house; host or cells: FreeStyle 293-F cells (HEK293), culture supernatant
# T2 sequence (P56817 with tags, fused parts or gaps): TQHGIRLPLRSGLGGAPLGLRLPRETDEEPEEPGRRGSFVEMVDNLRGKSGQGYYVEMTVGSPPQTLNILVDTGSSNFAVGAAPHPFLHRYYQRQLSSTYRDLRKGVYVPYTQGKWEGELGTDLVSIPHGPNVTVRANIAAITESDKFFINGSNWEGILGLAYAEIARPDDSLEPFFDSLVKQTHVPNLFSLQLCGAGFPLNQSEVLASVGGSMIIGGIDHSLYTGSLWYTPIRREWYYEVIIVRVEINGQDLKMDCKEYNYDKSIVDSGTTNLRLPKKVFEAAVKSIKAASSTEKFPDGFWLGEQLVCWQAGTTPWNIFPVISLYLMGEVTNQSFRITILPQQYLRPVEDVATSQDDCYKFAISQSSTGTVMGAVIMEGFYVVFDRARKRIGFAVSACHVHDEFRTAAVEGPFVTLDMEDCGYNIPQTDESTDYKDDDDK
# Description: (§2) To 96 black well plate, 25 μl of 0.05 M acetate buffer (pH 5.5), 10 μl of 250 μM substrate (Nma-Ser-Glu-Val-Lys-Met-Asp-Ala-Glu-Lys(Dnp)-Arg-Arg-NH2; SEQ ID NO: 11), 10 μl of BACE1-474 (0.02 mg/ml) or BACE1-454 (0.01 mg/ml) obtained from the above-mentioned Reference Example 5 or a recombinant human BACE-1 (amino acid residues 1-460, R & D Systems) (0.025 mg/ml) commercially available as an extracellular domain, and 5 μl of each compound in 10% DMSO solution, and as a control, 5 μl of 10% DMSO were added respectively, and allowed to be reacted at 37° C. for 63 hr. After completion of the reaction, the fluorescence intensity (excitation wavelength at 325 nm, measurement wavelength at 460 nm) was measured with Fluoroscan ASCENT.
# [2] = biological target: T3, BACE1-474 (extracellular domain and transmembrane domain of β-secretase) (Homo sapiens, UniProt P56817); experiment: as above; format: biochemical; details: final concentration: 10 μM; 37° C. for 63 hr; pH 5.5; read-out: inhibition rates on BACE1-474
# T3 construct: made in house; host or cells: FreeStyle 293-F cells (HEK293)
# T3 sequence (P56817 with tags, fused parts or gaps): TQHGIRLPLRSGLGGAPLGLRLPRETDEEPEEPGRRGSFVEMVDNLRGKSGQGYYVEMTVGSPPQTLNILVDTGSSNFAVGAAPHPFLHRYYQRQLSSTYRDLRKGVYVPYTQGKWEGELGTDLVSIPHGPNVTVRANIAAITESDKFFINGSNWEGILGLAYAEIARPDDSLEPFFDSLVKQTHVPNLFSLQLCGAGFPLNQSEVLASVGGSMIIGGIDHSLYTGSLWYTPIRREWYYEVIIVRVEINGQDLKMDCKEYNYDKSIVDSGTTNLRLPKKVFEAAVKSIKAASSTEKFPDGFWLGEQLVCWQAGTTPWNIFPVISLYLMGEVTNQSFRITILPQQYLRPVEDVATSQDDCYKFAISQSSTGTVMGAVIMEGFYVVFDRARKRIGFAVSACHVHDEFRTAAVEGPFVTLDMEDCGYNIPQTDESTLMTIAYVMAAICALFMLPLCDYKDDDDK
# Description: as §2
# [3] = biological target: T4, recombinant human BACE-1 (amino acid residues 1-460, R & D Systems) (Homo sapiens, UniProt P56817); experiment: as above; format: biochemical; details: final concentration: 10 μM; 37° C. for 63 hr; pH 5.5
# T4 construct: a recombinant human BACE-1 (amino acid residues 1-460, R & D Systems); purchased R & D Systems
# T4 sequence (P56817 22-460): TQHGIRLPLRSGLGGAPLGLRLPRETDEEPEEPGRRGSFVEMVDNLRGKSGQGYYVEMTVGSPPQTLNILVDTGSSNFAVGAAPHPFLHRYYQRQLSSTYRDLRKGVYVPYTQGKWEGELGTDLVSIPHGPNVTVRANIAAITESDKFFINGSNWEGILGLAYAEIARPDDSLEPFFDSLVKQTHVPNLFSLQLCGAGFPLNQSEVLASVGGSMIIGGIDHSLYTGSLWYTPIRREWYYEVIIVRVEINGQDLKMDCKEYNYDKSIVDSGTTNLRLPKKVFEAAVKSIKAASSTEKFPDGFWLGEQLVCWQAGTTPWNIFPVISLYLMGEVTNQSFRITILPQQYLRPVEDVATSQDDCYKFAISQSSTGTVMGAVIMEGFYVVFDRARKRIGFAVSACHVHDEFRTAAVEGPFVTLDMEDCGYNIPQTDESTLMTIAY
# Description: as §2
# BACE1-465 = biological target: T5, BACE1-465 (Homo sapiens, UniProt P56817); experiment: Inhibitory action on BACE1-465, fluorescence-quenched peptide substrate; format: biochemical; details: final concentration: 10 μM; 37° C. for 22 hr; pH5.5
# T5 construct: made in house; host or cells: FreeStyle 293-F cells (HEK293), culture supernatant
# T5 sequence (P56817 with tags, fused parts or gaps): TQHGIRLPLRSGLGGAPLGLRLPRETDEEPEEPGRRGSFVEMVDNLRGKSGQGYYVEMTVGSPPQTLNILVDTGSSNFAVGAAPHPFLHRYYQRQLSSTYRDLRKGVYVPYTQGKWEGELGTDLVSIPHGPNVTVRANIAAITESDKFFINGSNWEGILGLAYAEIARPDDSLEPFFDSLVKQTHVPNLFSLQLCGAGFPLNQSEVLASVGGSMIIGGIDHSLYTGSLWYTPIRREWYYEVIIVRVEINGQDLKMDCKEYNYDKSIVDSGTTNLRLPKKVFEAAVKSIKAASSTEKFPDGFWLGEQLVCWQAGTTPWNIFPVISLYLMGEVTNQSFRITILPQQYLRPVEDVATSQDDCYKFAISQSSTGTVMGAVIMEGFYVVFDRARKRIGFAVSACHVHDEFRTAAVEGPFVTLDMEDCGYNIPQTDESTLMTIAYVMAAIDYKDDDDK
# Description: as §1
# BACE1-501 = biological target: T6, BACE1-501 (Homo sapiens, UniProt P56817); experiment: Detection of binding by surface plasmon resonance (Biacore3000); details: PBS containing 10% DMSO and 0.005% Surfactant P20
# T6 construct: Expression of full-length β-secretase protein (BACE1-501) was performed with FreeStyle 293 Expression System; made in house; host or cells: FreeStyle 293-F cells (HEK293)
# T6 sequence (P56817 with tags, fused parts or gaps): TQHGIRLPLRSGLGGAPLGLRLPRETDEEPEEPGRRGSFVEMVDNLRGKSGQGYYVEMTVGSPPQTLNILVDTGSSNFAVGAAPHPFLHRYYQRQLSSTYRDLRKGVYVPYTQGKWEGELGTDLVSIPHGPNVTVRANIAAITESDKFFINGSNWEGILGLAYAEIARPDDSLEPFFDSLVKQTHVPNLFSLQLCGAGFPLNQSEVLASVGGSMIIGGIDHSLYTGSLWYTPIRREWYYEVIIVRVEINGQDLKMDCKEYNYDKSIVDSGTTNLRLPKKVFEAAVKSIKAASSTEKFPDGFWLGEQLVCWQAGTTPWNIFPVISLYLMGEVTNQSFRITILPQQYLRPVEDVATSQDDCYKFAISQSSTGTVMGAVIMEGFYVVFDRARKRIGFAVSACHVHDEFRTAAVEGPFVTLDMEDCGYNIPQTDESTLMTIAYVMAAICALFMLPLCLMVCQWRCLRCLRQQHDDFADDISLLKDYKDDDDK
# Excerpt: Biacore3000 (Biacore) was used for analysis by surface plasmon resonance. BACE1-501 and the recombinant human BACE-1 (amino acid residue 1-460) were immobilized to carboxyl groups on CM5 sensorchip (carboxymethylated dextran matrix chip) activated with N-hydrosuccinimide (NHS)/N-ethyl-N′-(3-dimethyl-aminopropyl)-carbodiimide hydrochloride (EDC) in acetate buffer at pH 4.5. BACE1-454 and BACE1-474 were immobilized by the same way in acetate buffer at pH 4.0. The binding of the compound and the enzymes was measured in PBS containing 10% DMSO and 0.005% Surfactant P20. The correction of the difference of Resonance Unit (RU) value among flow cells resulting from the bulk effect was carried out with a correction curve made using the buffers with the DMSO concentration varied from 9% to 11% in the five-graded. As a result, signals showing the binding of each compound to BACE1-501 and BACE1-474 were observed. On the other hand, for BACE1-454 and the recombinant human BACE-1 (amino acid residue 1-460), no signal was observed showing the binding.
inhibition at 10 µM (BACE1-471) [%],inhibitory activity on BACE1-454 [1],inhibition at 10 µM [2] [%],inhibitory activity on the recombinant human BACE-1 [3],inhibitory activity on BACE1-465 (BACE1-465),SPR signal showing the binding to BACE1-501 (BACE1-501),Structure (SMILES)
29,no inhibitory activity,30,no inhibitory activity,no inhibitory activity,,CN(C)CC[C@@H]1CCc2cc(OCc3ccc(-c4ccccc4)cc3)ccc2C1 [Compound A]
42,no inhibitory activity,38,no inhibitory activity,no inhibitory activity,,CCN(CC)CCC1CCc2cc(OCc3ccc(-c4ccccc4)cc3)ccc2C1 (centres unmarked) [Compound D]
31,no inhibitory activity,34,no inhibitory activity,no inhibitory activity,,C[N+](C)([O-])CC[C@@H]1CCc2cc(OCc3ccc(-c4ccccc4)cc3)ccc2C1 [Compound H]
70,no inhibitory activity,37,no inhibitory activity,no inhibitory activity,,NCCC1CCc2cc(OCc3ccc(-c4ccccc4)cc3)ccc2C1 (centres unmarked) [Compound I]
48,no inhibitory activity,37,no inhibitory activity,no inhibitory activity,binding,Cc1ccc(-c2ccc(COc3ccc4c(c3)CC[C@@H](CCN(C)C)C4)cc2)cc1 [Compound J]
